Structures can show the parent of a compound that is named as a salt.
Each molecule was assayed against T1, HIV integrase (Human immunodeficiency virus type 1 group M subtype B, UniProt P12497, F1332H) (assay: Determination of enzyme (HIV integrase) inhibitory activity). Conditions: recombinant HIV integrase (F185H), strand transfer ELISA, absorbance at 450 nm.
T1 construct: HIV integrase full length gene; made in house; host or cells: Escherichia coli BL21(DE3), plasmid pET21a-INH
Assay type: biochemical
Procedure, shortened: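 Full-length integrase with F185H, expressed in E. coli and purified, was reacted for 60 min at 37 °C with compound and biotinylated donor DNA bound to streptavidin plates. Target DNA was added for 10 min, then anti-digoxigenin-peroxidase detection at A450; IC50 from % inhibition versus enzyme-free blank.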

Question: How did the IC50 turn out when `O=c1c(-c2ccccc2)cn2c(CC3CCCCC3)cn(Cc3cccc(Cl)c3)c(=O)c2c1O` [Example 119, 2-(3-chlorobenzyl)-4-cyclohexylmethyl-9-hydroxy-7-phenyl-2H-pyrido[1,2-a]pyrazine-1,8-dione hydrochloride] was run?
Answer: Its IC50 is 100 to 1000 nM.

Question: `O=c1c(-c2ccco2)cn2ccn(Cc3cccc(Cl)c3)c(=O)c2c1O` [Example 120, 2-(3-chlorobenzyl)-7-(furan-2-yl)-9-hydroxy-2H-pyrido[1,2-a]pyrazine-1,8-dione hydrochloride] was tested. Which IC50 did it give?
Answer: Its IC50 is under 10 nM.

Question: How did the IC50 turn out when `Cn1cc2c(c(O)c1=O)C(=O)N(Cc1ccc(Cl)c(Cl)c1)CC2` [Example 121, 2-(3,4-dichlorobenzyl)-8-hydroxy-6-methyl-2,3,4,6-tetrahydro-2,6-naphthyridine-1,7-dione] was run?
Answer: The IC50 was under 10 nM.

Question: Which IC50 does the source give for `Cn1cc2c(c(O)c1=O)C(=O)N(CCCc1c(F)cccc1Cl)CC2` [Example 122, 2-[3-(2-chloro-6-fluorophenyl)propyl]-8-hydroxy-6-methyl-2,3,4,6-tetrahydro-2,6-naphthyridine-1,7-dione] here?
Answer: Its IC50 is under 10 nM.

Question: With `Cn1nc2c(c(O)c1=O)C(=O)N(Cc1cccc(Cl)c1)CC2` [Example 123, 6-(3-chlorobenzyl)-4-hydroxy-2-methyl-2,6,7,8-tetrahydropyrido[4,3-c]pyridazine-3,5-dione] as the molecule, how does the IC50 read?
Answer: The IC50 was 100 to 1000 nM.

Question: `O=c1c(-c2cc3ccccc3o2)cn2ccn(Cc3cccc(Cl)c3)c(=O)c2c1O` [Example 124, 7-(benzofuran-2-yl)-2-(3-chlorobenzyl)-9-hydroxy-2H-pyrido[1,2-a]pyrazine-1,8-dione hydrochloride] was tested. Which IC50 did it give?
Answer: Its IC50 is 10 to 100 nM.

Question: How did the IC50 turn out when `CC(C)(C)C(=O)c1cn2ccn(Cc3cccc(Cl)c3)c(=O)c2c(O)c1=O` [Example 125, 2-(3-chlorobenzyl)-7-(2,2-dimethylpropionyl)-9-hydroxy-2H-pyrido[1,2-a]pyrazine-1,8-dione hydrochloride] was run?
Answer: Its IC50 is under 10 nM.

Question: Which IC50 does the source give for `CC(C)(C)Cc1cn2ccn(Cc3cccc(Cl)c3)c(=O)c2c(O)c1=O` [Example 126, 2-(3-chlorobenzyl)-7-(2,2-dimethylpropyl)-9-hydroxy-2H-pyrido[1,2-a]pyrazine-1,8-dione hydrochloride] here?
Answer: The IC50 was 10 to 100 nM.

Question: With `O=c1c(-c2ccccc2C(F)(F)F)cn2ccn(Cc3cccc(Cl)c3)c(=O)c2c1O` [Example 127, 2-(3-chlorobenzyl)-9-hydroxy-7-(2-trifluoromethylphenyl)-2H-pyrido[1,2-a]pyrazine-1,8-dione hydrochloride] as the molecule, how does the IC50 read?
Answer: The IC50 was under 10 nM.

Question: With `COc1cccc(-c2cn3ccn(Cc4cccc(Cl)c4)c(=O)c3c(O)c2=O)c1` [Example 128, 2-(3-chlorobenzyl)-9-hydroxy-7-(3-methoxyphenyl)-2H-pyrido[1,2-a]pyrazine-1,8-dione hydrochloride] as the molecule, how does the IC50 read?
Answer: The IC50 was 10 to 100 nM.

Question: How did the IC50 turn out when `CC(C)c1cn(Cc2cccc(Cl)c2)c(=O)c2c(O)c(=O)c(Br)cn12` [Example 129, 7-bromo-2-(3-chlorobenzyl)-9-hydroxy-4-isopropyl-2H-pyrido[1,2-a]pyrazine-1,8-dione hydrochloride] was run?
Answer: Its IC50 is 10 to 100 nM.

Question: `O=c1c(-c2ccccc2F)cn2ccn(Cc3cccc(Cl)c3)c(=O)c2c1O` [Example 130, 2-(3-chlorobenzyl)-7-(2-fluorophenyl)-9-hydroxy-2H-pyrido[1,2-a]pyrazine-1,8-dione hydrochloride] was tested. Which IC50 did it give?
Answer: The IC50 was under 10 nM.

Question: How did the IC50 turn out when `CC(C)c1cn(Cc2cccc(Cl)c2)c(=O)c2c(O)c(=O)c(-c3ccccc3)cn12` [Example 131, 2-(3-chlorobenzyl)-9-hydroxy-4-isopropyl-7-phenyl-2H-pyrido[1,2-a]pyrazine-1,8-dione hydrochloride] was run?
Answer: The IC50 was 10 to 100 nM.

Question: With `COc1ccccc1-c1cn2ccn(Cc3cccc(Cl)c3)c(=O)c2c(O)c1=O` [Example 132, 2-(3-chlorobenzyl)-9-hydroxy-7-(2-methoxyphenyl)-2H-pyrido[1,2-a]pyrazine-1,8-dione hydrochloride] as the molecule, how does the IC50 read?
Answer: Its IC50 is 10 to 100 nM.

Question: With `COc1ccc(-c2cn3ccn(Cc4cccc(Cl)c4)c(=O)c3c(O)c2=O)cc1` [Example 133, 2-(3-chlorobenzyl)-9-hydroxy-7-(4-methoxyphenyl)-2H-pyrido[1,2-a]pyrazine-1,8-dione hydrochloride] as the molecule, how does the IC50 read?
Answer: The IC50 was under 10 nM.

Question: Which IC50 does the source give for `CCc1cn2ccn(Cc3cccc(Cl)c3)c(=O)c2c(O)c1=O` [Example 134, 2-(3-chlorobenzyl)-7-ethyl-9-hydroxy-2H-pyrido[1,2-a]pyrazine-1,8-dione hydrochloride] here?
Answer: Its IC50 is 10 to 100 nM.

Question: For `Cc1cccc(C)c1-c1cn2ccn(Cc3cccc(Cl)c3)c(=O)c2c(O)c1=O` [Example 135, 2-(3-chlorobenzyl)-7-(2,6-dimethylphenyl)-9-hydroxy-2H-pyrido[1,2-a]pyrazine-1,8-dione hydrochloride], which IC50 is on record?
Answer: Its IC50 is 10 to 100 nM.

Question: `O=c1c(-c2cccc(O)c2)cn2ccn(Cc3cccc(Cl)c3)c(=O)c2c1O` [Example 136, 2-(3-chlorobenzyl)-9-hydroxy-7-(3-hydroxyphenyl)-2H-pyrido[1,2-a]pyrazine-1,8-dione] was tested. Which IC50 did it give?
Answer: The IC50 was under 10 nM.

Question: For `O=C(c1ccccc1)c1cn2ccn(Cc3cccc(Cl)c3)c(=O)c2c(O)c1=O` [Example 137, 7-benzoyl-2-(3-chlorobenzyl)-9-hydroxy-2H-pyrido[1,2-a]pyrazine-1,8-dione hydrochloride], which IC50 is on record?
Answer: Its IC50 is 10 to 100 nM.

Question: Which IC50 does the source give for `CCc1ccccc1-c1cn2ccn(Cc3cccc(Cl)c3)c(=O)c2c(O)c1=O` [Example 138, 2-(3-chlorobenzyl)-7-(2-ethylphenyl)-9-hydroxy-2H-pyrido[1,2-a]pyrazine-1,8-dione hydrochloride] here?
Answer: The IC50 was 10 to 100 nM.

Question: For `CC(C)c1cn(Cc2cccc(Cl)c2)c(=O)c2c(O)c(=O)c(-c3cccc(Cl)c3)cn12` [Example 139, 2-(3-chlorobenzyl)-7-(3-chlorophenyl)-9-hydroxy-4-isopropyl-2H-pyrido[1,2-a]pyrazine-1,8-dione], which IC50 is on record?
Answer: Its IC50 is 10 to 100 nM.

Question: `O=c1c(Cc2ccccc2)cn2ccn(Cc3cccc(Cl)c3)c(=O)c2c1O` [Example 140, 7-benzyl-2-(3-chlorobenzyl)-9-hydroxy-2H-pyrido[1,2-a]pyrazine-1,8-dione hydrochloride] was tested. Which IC50 did it give?
Answer: Its IC50 is 10 to 100 nM.

Question: How did the IC50 turn out when `O=c1c(-c2ccccc2O)cn2ccn(Cc3cccc(Cl)c3)c(=O)c2c1O` [Example 141, 2-(3-chlorobenzyl)-9-hydroxy-7-(2-hydroxyphenyl)-2H-pyrido[1,2-a]pyrazine-1,8-dione] was run?
Answer: The IC50 was under 10 nM.

Question: For `O=c1c(-c2ccc(O)cc2)cn2ccn(Cc3cccc(Cl)c3)c(=O)c2c1O` [Example 142, 2-(3-chlorobenzyl)-9-hydroxy-7-(4-hydroxyphenyl)-2H-pyrido[1,2-a]pyrazine-1,8-dione], which IC50 is on record?
Answer: Its IC50 is 10 to 100 nM.

Question: `Cn1cc2c(c(O)c1=O)C(=O)N(Cc1cccc(C(F)(F)F)c1)CC2` [Example 143, 8-hydroxy-6-methyl-2-(3-trifluoromethylbenzyl)-2,3,4,6-tetrahydro-2,6-naphthyridine-1,7-dione] was tested. Which IC50 did it give?
Answer: The IC50 was 100 to 1000 nM.

Question: For `COc1cccc(CN2CCc3cn(C)c(=O)c(O)c3C2=O)c1` [Example 144, 8-hydroxy-2-(3-methoxybenzyl)-6-methyl-2,3,4,6-tetrahydro-2,6-naphthyridine-1,7-dione], which IC50 is on record?
Answer: Its IC50 is 10 to 100 nM.

Question: Which IC50 does the source give for `Cn1nc2ccn(Cc3cccc(Cl)c3)c(=O)c2c(O)c1=O` [Example 145, 6-(3-chlorobenzyl)-4-hydroxy-2-methyl-2,6-dihydropyrido[4,3-c]pyridazine-3,5-dione] here?
Answer: The IC50 was 100 to 1000 nM.

Question: With `O=c1ccn2ncn(Cc3cccc(Cl)c3)c(=O)c2c1O` [Example 146, 3-(3-chlorobenzyl)-5-hydroxy-3H-pyrido[2,1-f][1,2,4]triazine-4,6-dione] as the molecule, how does the IC50 read?
Answer: Its IC50 is 100 to 1000 nM.

Question: For `COC(=O)c1cn2ccn(Cc3cccc(Cl)c3)c(=O)c2c(O)c1=O` [Example 147, methyl 2-(3-chlorobenzyl)-9-hydroxy-1,8-dioxo-1,8-dihydro-2H-pyrido[1,2-a]pyrazine-7-carboxylate hydrochloride], which IC50 is on record?
Answer: Its IC50 is 10 to 100 nM.

Question: How did the IC50 turn out when `Cn1ccnc1-c1cn2ccn(Cc3cccc(Cl)c3)c(=O)c2c(O)c1=O` [Example 148, 2-(3-chlorobenzyl)-9-hydroxy-7-(1-methyl-1H-imidazol-2-yl)-2H-pyrido[1,2-a]pyrazine-1,8-dione hydrochloride] was run?
Answer: Its IC50 is 10 to 100 nM.

Question: How did the IC50 turn out when `CC(C)C(=O)c1cn2ccn(Cc3cccc(Cl)c3)c(=O)c2c(O)c1=O` [Example 149, 2-(3-chlorobenzyl)-9-hydroxy-7-isobutyryl-2H-pyrido[1,2-a]pyrazine-1,8-dione hydrochloride] was run?
Answer: Its IC50 is under 10 nM.

Question: `CC(C)OC(=O)c1cn2ccn(Cc3cccc(Cl)c3)c(=O)c2c(O)c1=O` [Example 150, isopropyl 2-(3-chlorobenzyl)-9-hydroxy-1,8-dioxo-1,8-dihydro-2H-pyrido[1,2-a]pyrazine-7-carboxylate] was tested. Which IC50 did it give?
Answer: The IC50 was 10 to 100 nM.

Question: Which IC50 does the source give for `O=c1ccn2ccn(Cc3ccc(Cl)cc3)c(=O)c2c1O` [Example 151, 2-(4-chlorobenzyl)-9-hydroxy-2H-pyrido[1,2-a]pyrazine-1,8-dione hydrochloride] here?
Answer: The IC50 was 10 to 100 nM.

Question: `O=C(O)c1cn2ccn(Cc3cccc(Cl)c3)c(=O)c2c(O)c1=O` [Example 152, 2-(3-chlorobenzyl)-9-hydroxy-1,8-dioxo-1,8-dihydro-2H-pyrido[1,2-a]pyrazine-7-carboxylic acid hydrochloride] was tested. Which IC50 did it give?
Answer: The IC50 was 100 to 1000 nM.

Question: `CN(C)C(=O)c1cn2ccn(Cc3cccc(Cl)c3)c(=O)c2c(O)c1=O` [Example 153, N,N-dimethyl-2-(3-chlorobenzyl)-9-hydroxy-1,8-dioxo-1,8-dihydro-2H-pyrido[1,2-a]pyrazine-7-carboxamide] was tested. Which IC50 did it give?
Answer: The IC50 was 10 to 100 nM.

Question: `CC(C)NC(=O)c1cn2ccn(Cc3cccc(Cl)c3)c(=O)c2c(O)c1=O` [Example 154, 2-(3-chlorobenzyl)-9-hydroxy-1,8-dioxo-1,8-dihydro-2H-pyrido[1,2-a]pyrazine-7-carboxylic acid isopropylamide] was tested. Which IC50 did it give?
Answer: Its IC50 is 10 to 100 nM.

Question: For `CNC(=O)c1cn2ccn(Cc3cccc(Cl)c3)c(=O)c2c(O)c1=O` [Example 155, N-methyl-2-(3-chlorobenzyl)-9-hydroxy-1,8-dioxo-1,8-dihydro-2H-pyrido[1,2-a]pyrazine-7-carboxamide], which IC50 is on record?
Answer: Its IC50 is under 10 nM.

From patent US7211572B2 (Japan Tobacco Inc., priority 2003, dated 2007)
